In the supplement of paper PMC13380429:

Legend:
Details in all cases: 72 h
[1] = test system: Caco-2; test: cell viability relative to DMSO; higher = less toxic
[2] = test system: Calu-3; test: as above
[3] = test system: HepG2; test: as above
[4] = test system: U2OS; test: as above
[5] = test system: Caco-2; test: relative viability EC50 (midpoint between 100% and the lowest measured viability); higher = less toxic
[6] = test system: Calu-3; test: as above
[7] = test system: HepG2; test: as above
[8] = test system: U2OS; test: as above
[9] = test system: Caco-2; test: drug sensitivity score (DSS) for viability; higher = more toxic; extreme values may be limits of the assay
[10] = test system: Calu-3; test: as above
[11] = test system: HepG2; test: as above
[12] = test system: U2OS; test: as above
[13] = test system: Vero E6; test: cell viability relative to DMSO; higher = less toxic
[14] = test system: Vero E6; test: relative viability EC50 (midpoint between 100% and the lowest measured viability); higher = less toxic
[15] = test system: Vero E6; test: drug sensitivity score (DSS) for viability; higher = more toxic; extreme values may be limits of the assay

Structure (SMILES) | cell viability ([1]; 1 nM) | cell viability ([1]; 10 nM) | cell viability ([1]; 100 nM) | cell viability ([1]; 1000 nM) | cell viability ([1]; 10000 nM) | cell viability ([2]; 1 nM) | cell viability ([2]; 10 nM) | cell viability ([2]; 100 nM) | cell viability ([2]; 1000 nM) | cell viability ([2]; 10000 nM) | cell viability ([3]; 1 nM) | cell viability ([3]; 10 nM) | cell viability ([3]; 100 nM) | cell viability ([3]; 1000 nM) | cell viability ([3]; 10000 nM) | cell viability ([4]; 1 nM) | cell viability ([4]; 10 nM) | cell viability ([4]; 100 nM) | cell viability ([4]; 1000 nM) | cell viability ([4]; 10000 nM) | relative viability EC50 [5] | relative viability EC50 [6] | relative viability EC50 [7] | relative viability EC50 [8] | drug sensitivity score [9] | drug sensitivity score [10] | drug sensitivity score [11] | drug sensitivity score [12] | cell viability ([13]; 1 nM) | cell viability ([13]; 10 nM) | cell viability ([13]; 100 nM) | cell viability ([13]; 1000 nM) | cell viability ([13]; 10000 nM) | relative viability EC50 [14] | drug sensitivity score [15]
N=C(N)Nc1ccc(Cl)cc1 [4-chlorophenylguanidine] | 103% | 100% | 97% | 95.1% | 95.6% | 93% | 89.4% | 94.6% | 91.7% | 102% | 99.6% | 99.2% | 107% | 115% | 93.2% | 102% | 95.9% | 99.7% | 96.5% | 101% | > 10 µM | > 10 µM | > 10 µM | > 10 µM | 0 | 0 | 0 | 0 |  |  |  |  |  |  | 
CCC(NC(C)C)C(O)c1ccc(O)c2[nH]c(=O)ccc12 (centres undefined) [procaterol] | 84.2% | 107% | 89.9% | 99.6% | 92.8% | 92.1% | 104% | 105% | 110% | 95.9% | 110% | 93.9% | 103% | 97.4% | 95.4% | 101% | 105% | 96% | 104% | 101% | > 10 µM | > 10 µM | > 10 µM | > 10 µM | 0 | 0 | 0 | 0 |  |  |  |  |  |  | 
C[C@@H]1CC[C@@]2(OC1)O[C@H]1C[C@H]3[C@@H]4CC=C5C[C@@H](O[C@@H]6O[C@H](CO)[C@@H](O[C@@H]7O[C@@H](C)[C@H](O)[C@@H](O)[C@H]7O)[C@H](O)[C@H]6O[C@@H]6O[C@@H](C)[C@H](O)[C@@H](O)[C@H]6O)CC[C@]5(C)[C@H]4CC[C@]3(C)[C@H]1[C@@H]2C [dioscin] | 97.9% | 92.6% | 95.2% | 75.9% | 2.3% | 96.7% | 89.7% | 97.9% | 79.3% | 2.9% | 96.8% | 97.5% | 90.1% | 76.2% | -0.2% |  |  |  |  |  | 1.56 µM | 1.68 µM | 1.59 µM |  | 9.1 | 8.7 | 9.2 |  | 97% | 103% | 98.4% | 71.1% | 0.9% | 1420 nM | 9.7
CCCCCN(C)CCC(O)(P(=O)(O)O)P(=O)(O)O [ibandronate] | 97% | 111% | 106% | 106% | 94.5% | 96.4% | 111% | 96% | 106% | 107% | 111% | 98% | 112% | 106% | 117% |  |  |  |  |  | > 10 µM | > 10 µM | > 10 µM |  | 0 | 0 | 0 |  |  |  |  |  |  |  | 
CC(=O)Nc1ccc(C(=O)O)cc1 [acedoben] | 88.6% | 100% | 95.6% | 86.4% | 109% | 101% | 99.4% | 96.7% | 100% | 108% | 114% | 110% | 107% | 96.8% | 104% | 97.4% | 104% | 97.3% | 98% | 102% | > 10 µM | > 10 µM | > 10 µM | > 10 µM | 0 | 0 | 0 | 0 |  |  |  |  |  |  | 
Oc1ccc(Nc2nc(-c3ccc(Cl)cc3)cs2)cc1 [SKI-II] | 100% | 98.1% | 104% | 99.9% | 90% | 103% | 96.2% | 97.8% | 90.5% | 85.6% | 90.8% | 68.7% | 106% | 81.3% | 98% |  |  |  |  |  | > 10 µM | > 10 µM | > 10 µM |  | 0 | 0.5 | 0 |  | 102% | 104% | 99.2% | 107% | 97.5% | > 10000 nM | 0
C=CC[N@@+]12CC[C@@]34c5ccccc5N5/C=C6/[C@H]7C[C@H]8[C@@]9(CC[N@@+]8(CC=C)C/C7=C/CO)c7ccccc7N(/C=C(/[C@@H](C[C@@H]31)/C(=C\CO)C2)[C@H]54)[C@@H]69 [alcuronium] | 94.9% | 99.9% | 99.4% | 102% | 107% | 97.8% | 103% | 91.2% | 90.8% | 87.8% | 106% | 107% | 98.2% | 102% | 103% | 102% | 99% | 101% | 99.7% | 103% | > 10 µM | > 10 µM | > 10 µM | > 10 µM | 0 | 1 | 0 | 0 |  |  |  |  |  |  | 
